# Target: MLK-3 (Homo sapiens, UniProt Q16584)
# Assay: Biochemical assay for the inhibition of kinase activity for MLK-3 (33P-ATP, HOTSPOT filter binding)
# Settings: activated MLK-3 20 nM, ATP 50 μM, myelin basic protein 20 μM, 20 minutes room temperature
# Outline: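 Activated MLK-3 (20 nM) with myelin basic protein (20 μM) in 20 mM Hepes pH 7.5, MgCl2, EGTA, Brij35, BSA, Na3VO4, DTT, 1% DMSO. Started with 33P-ATP at 50 μM ATP, 20 min at room temperature; % activity by HOTSPOT filter binding.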
# MLK-3, sequence (Q16584 whole entry): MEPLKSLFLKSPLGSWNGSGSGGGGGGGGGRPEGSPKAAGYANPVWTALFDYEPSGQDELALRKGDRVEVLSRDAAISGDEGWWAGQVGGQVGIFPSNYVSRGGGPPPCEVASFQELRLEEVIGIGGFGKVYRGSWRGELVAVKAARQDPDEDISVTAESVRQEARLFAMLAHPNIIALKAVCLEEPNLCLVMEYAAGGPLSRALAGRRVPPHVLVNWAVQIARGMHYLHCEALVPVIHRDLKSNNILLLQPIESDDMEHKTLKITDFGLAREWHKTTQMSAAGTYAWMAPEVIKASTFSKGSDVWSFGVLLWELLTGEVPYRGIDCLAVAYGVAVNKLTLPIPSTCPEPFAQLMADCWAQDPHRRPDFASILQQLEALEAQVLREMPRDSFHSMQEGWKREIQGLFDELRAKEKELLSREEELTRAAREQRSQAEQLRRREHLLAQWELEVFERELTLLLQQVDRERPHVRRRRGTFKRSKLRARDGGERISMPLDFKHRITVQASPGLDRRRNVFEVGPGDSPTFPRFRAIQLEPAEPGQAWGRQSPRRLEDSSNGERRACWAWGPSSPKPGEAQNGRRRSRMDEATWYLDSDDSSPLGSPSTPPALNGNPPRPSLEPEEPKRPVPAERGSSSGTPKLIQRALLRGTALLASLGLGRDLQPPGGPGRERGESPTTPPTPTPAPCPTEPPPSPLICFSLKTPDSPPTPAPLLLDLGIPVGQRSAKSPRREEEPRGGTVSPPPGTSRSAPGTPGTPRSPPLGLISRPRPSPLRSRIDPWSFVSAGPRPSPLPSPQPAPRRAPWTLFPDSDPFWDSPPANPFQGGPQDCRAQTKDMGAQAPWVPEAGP
row,Structure (SMILES),IC50 [nM]
1,"COc1ccc(Nc2ccc3ncc(-c4cc5ccncc5s4)n3n2)cc1OC [Compound 218, N-(3,4-dimethoxyphenyl)-3-(thieno[2,3-c]pyridin-2-yl)imidazo[1,2-b]pyridazin-6-amine]",< 100
2,"O[C@H]1CC[C@H](Nc2ccc3ncc(-c4cc5ccncc5s4)n3n2)CC1 [Compound 219, trans-4-(3-(thieno[2,3-c]pyridin-2-yl)imidazo[1,2-b]pyridazin-6-ylamino)cyclohexanol]",< 5000
3,"CO[C@H]1CC[C@H](N(C)c2ccc3ncc(-c4cc5cncc(C)c5s4)n3n2)CC1 [Compound 220, N-((1r,4r)-4-methoxycyclohexyl)-N-methyl-3-(7-methylthieno[3,2-c]pyridin-2-yl)imidazo[1,2-b]pyridazin-6-amine]",100 to 500
4,"Cc1cncc2cc(-c3cnc4ccc(N(C)[C@H]5CC[C@H](O)CC5)nn34)sc12 [Compound 221, trans-4-(N-methyl-N-(3-(7-methylthieno[3,2-c]pyridin-2-yl)imidazo[1,2-b]pyridazin-6-yl)amino)cyclohexanol]",100 to 500
